Here are results for 13 molecules from US8629168B2, “Benzoxazoles and oxazolopyridines being useful as janus kinases inhibitors” (priority 2006, dated 2014).

Structures are written as SMILES.

One series deals with T1, GST-JAK2(808-1132) (Homo sapiens, UniProt O60674).
T1 construct: GST-JAK2(808-1132) is purchased from Invitrogen; purchased Invitrogen (Carlsbad, USA) #4288
As to the kind of experiment: EPK JAK/TYK-kinase family profiling assay (Caliper mobility shift), JAK2. The series is classed as biochemical. To be noted: Caliper mobility shift assay of Example 187, 20 μM ATP, read-out: IC50 with Test in present Example. The gist of the method:
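Caliper mobility-shift assay with the GST-tagged kinase domain and a fluorescently labeled peptide substrate plus ATP, run 60 min at 30° C and then stopped with EDTA buffer. Turnover was taken as the substrate/product ratio. Compounds were tested at eight final concentrations from 10 to 0.003 μM.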

In the next series the target is T2, GST-JAK2 (Homo sapiens, UniProt O60674).
T2 construct: the amino acid domain ASP751-VAL1129 of the JAK2 protein
As to the kind of experiment: JAK2 kinase assay of the general description (alternative method, flash plate). To be noted: 1.0 μM ATP, read-out: IC50 with test in general description (named “alternative method to that given in the examples”) (“flash plate”). The series is classed as biochemical. The protocol: Baculovirus including the amino acid domain ASP751-VAL1129 of the JAK2 protein is obtainable by ProQinase, Freiburg, Germany. The virus is scaled up as following: Virus containing media is collected from the transfected cell culture and used for infection to increase its titer. Virus containing media obtained after two rounds of infection is used for large-scale protein expression. For large-scale protein expression 100 cm^2 round tissue culture plates are seeded with 5×10^7 cells/plate and infected with 1 mL of virus-containing media (approx. 5 MOIs). After 3 days the cells are scraped off the plate and centrifuged at 500 rpm for 5 min. Cell pellets from 10-20, 100 cm^2 plates, are re-suspended in 50 mL of ice-cold lysis buffer (25 mMTris-HCl, pH7.5, 2 mMEDTA, 1% NP-40, 1 mM DTT, 1 mMP MSF). The cells are stirred on ice for 15 min and then centrifuged at 5000 rpms for 20 min. The protein is purified by loading the centrifuged cell lysate onto a 2 mL glutathione-sepharose column and washed three times with 10 mL of 25 mM Tris-HCl, pH 7.5, 2 mM EDTA, 1 mM DTT, 200 mM NaCl. The GST-tagged proteins are then eluted by 10 applications (1 mL each) of 25 mM Tris-HCl, pH 7.5, 10 mM reduced-glutathione, 100 mM NaCl, 1 mM DTT, 10% Glycerol and stored at −70° C.
Cancer Cell; 5: 231-239]. The test compound is dissolved in DMSO (10 mM) and stored at −20° C. Serial dilutions are freshly made in DMSO and are […] concentrated than test solutions (“pre-dilution plates”). They are further diluted with pure water to yield “master plates” containing 3 times concentrated test solutions in 3% DMSO. The final volume of the assay is 30 μL containing 10 μL of test solution (1% DMSO), 10 μL assay mix including the assay components described by Garcia-Echeverria (2004) and in the following section as well as 10 μL enzyme. The pipetting steps can be programmed to be performed either on the MultiPROBE Iix, MultiPROBE IILx or HamiltonSTAR robots in the 96 well format.
The protein kinase assays are carried as described in details by Garcia-Echeverria (see above). The assay for JAK2 is carried out in 96-well plates at ambient temperature for 10 min (filter-biding method) or 30 min (flash plates) in a finial volume of 30 μL including the following components: 300 ng of GST-JAK2, 20 mM Tris-HCl, pH 7.5, 1.0 mM MnCl2, 10 mM MgCl2, 1 mM DTT, 3 μg/mL poly(Glu, Tyr) 4:1, 1% DMSO and 1.0 μM ATP (γ-[^33P]-ATP 0.1 μCi); The assays are terminated by the addition of 20 μl of 125 mM EDTA. The capturing of the phosphorylated peptides by the filter-binding method is performed as following: 40 μL of the reaction mixture are transferred onto Immobilon-PVDF membranes previously soaked for 5 min with methanol, rinsed with water, then soaked for 5 min with 0.5% H3PO4 and mounted on vacuum manifold with disconnected vacuum source. After spotting all samples, vacuum is connected and each well rinsed with 200 μl 0.5% H3PO4. Free membranes are removed and washed 4× on a shaker with 1.0% H3PO4, once with ethanol. Membranes are counted after drying at ambient temperature, mounting in Packard TopCount 96-well frame, and addition of 10 μl/well of Microscint. The plates are eventually sealed and counted in a microplate scintillation counter (TopCount NXT, TopCount NXT HTS, PerkinElmer, Brussels, Belgium).
The assays for the flash plate method is carried out in a total volume of 30 μL at RT in conventional 96-well flash plates. The reaction is stopped after 30 min by the addition of 20 μL of 125 mM EDTA The assay plates are then washed three times with PBS and dried at room temperature. The plates are sealed and counted in a microplate scintillation counter (TopCount NXT, TopCount NXT HTS). IC50 values are calculated by linear regression analysis of the percentage inhibition of the compound either in duplicate, at four concentrations (usually 0.01, 0.1, 1 and 10 μM) or as 8 single point IC50 starting at 10 μM following by 1:3 dilutions.

The term melting point denotes the temperature of the solid-liquid transition. For orientation: IC50 means the concentration that inhibits the measured activity by half.

T1 sequence (O60674 808-1132): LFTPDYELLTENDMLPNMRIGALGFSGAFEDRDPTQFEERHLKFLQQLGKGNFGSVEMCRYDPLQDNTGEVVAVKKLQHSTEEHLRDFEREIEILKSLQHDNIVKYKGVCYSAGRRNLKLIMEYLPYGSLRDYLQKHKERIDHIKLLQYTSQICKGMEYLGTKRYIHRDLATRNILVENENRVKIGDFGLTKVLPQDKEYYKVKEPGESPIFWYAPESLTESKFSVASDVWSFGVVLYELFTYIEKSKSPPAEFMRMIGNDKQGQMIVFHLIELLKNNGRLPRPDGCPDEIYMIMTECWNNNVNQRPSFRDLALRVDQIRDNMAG
T2 sequence (O60674 751-1129): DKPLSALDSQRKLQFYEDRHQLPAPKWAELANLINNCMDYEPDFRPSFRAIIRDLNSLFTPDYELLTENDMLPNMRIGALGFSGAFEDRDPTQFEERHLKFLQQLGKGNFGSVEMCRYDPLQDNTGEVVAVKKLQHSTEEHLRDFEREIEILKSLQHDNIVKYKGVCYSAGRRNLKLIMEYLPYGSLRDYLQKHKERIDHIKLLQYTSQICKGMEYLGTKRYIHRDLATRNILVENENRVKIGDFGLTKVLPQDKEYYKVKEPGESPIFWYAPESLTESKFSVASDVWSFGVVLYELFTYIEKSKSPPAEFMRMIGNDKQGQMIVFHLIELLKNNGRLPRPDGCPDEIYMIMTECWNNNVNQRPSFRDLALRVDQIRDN

As to `COc1cc(Nc2nc3cccc(-c4ccc(NS(C)(=O)=O)cc4)c3o2)cc(OC)c1OC` (hydrate or solvate) [Example 26, N-{4-[2-(3,4,5-Trimethoxy-phenylamino)-benzooxazol-7-yl]-phenyl}-methanesulfonamide], the melting point was in the range of 222 to 225 °C.
`COc1cc(Nc2nc3cccc(-c4ccc(NC(C)=O)cc4)c3o2)cc(OC)c1OC` (hydrate or solvate) [Example 27, N-{4-[2-(3,4,5-Trimethoxy-phenylamino)-benzooxazol-7-yl]-phenyl}-acetamide] came in with a melting point of 265 to 270 °C.
The same measure, in the same setting: next, `COc1cc(Nc2nc3cccc(-c4ccc(CN)cc4)c3o2)cc(OC)c1OC` (hydrate or solvate) [Example 29, [7-(4-Aminomethyl-phenyl)-benzooxazol-2-yl]-(3,4,5-trimethoxy-phenyl)-amine]: 208 to 211 °C.
On to `COc1cc(Nc2nc3cccc(-c4ccc(CNC(C)=O)cc4)c3o2)cc(OC)c1OC` (hydrate or solvate) [Example 30, N-{4-[2-(3,4,5-Trimethoxy-phenylamino)-benzooxazol-7-yl]-benzyl}-acetamide], for which the melting point lay in the range of 237 to 239 °C.
Regarding `COCCNC(=O)c1ccc(Nc2nc3cccc(-c4ccc(S(N)(=O)=O)cc4)c3o2)cc1` [Example 56, N-(2-Methoxy-ethyl)-4-[7-(4-sulfamoyl-phenyl)-benzooxazol-2-ylamino]-benzamide], the IC50 on GST-JAK2(808-1132) is 51 nM; on GST-JAK2, 110 nM.
`CN(C)CCNC(=O)c1ccc(Nc2nc3cccc(-c4ccc(S(N)(=O)=O)cc4)c3o2)cc1` [Example 57, N-(2-Dimethylamino-ethyl)-4-[7-(4-sulfamoyl-phenyl)-benzooxazol-2-ylamino]-benzamide]: the half-inhibitory concentration (IC50) on GST-JAK2(808-1132) was found to be 37 nM; on GST-JAK2, 150 nM.
On to `COc1ccc(Nc2nc3cccc(-c4ccc(S(N)(=O)=O)cc4)c3o2)cc1OC` [Example 58, 4-[2-(3,4-Dimethoxy-phenylamino)-benzooxazol-7-yl]-benzenesulfonamide], for which the IC50 stood at 37 nM on GST-JAK2(808-1132) and 41.5 nM at GST-JAK2.
For `COc1cc(Nc2nc3cccc(-c4ccc(S(N)(=O)=O)cc4)c3o2)cc(OC)c1` [Example 60, 4-[2-(3,5-Dimethoxy-phenylamino)-benzooxazol-7-yl]-benzenesulfonamide], in that order: 170 nM and 160 nM.
For `COc1cc(Nc2nc3ccnc(-c4ccc(CNS(C)(=O)=O)cc4)c3o2)cc(OC)c1OC` [Example 62, N-{4-[2-(3,4,5-Trimethoxy-phenylamino)-oxazolo[5,4-c]pyridin-4-yl]-benzyl}-methanesulfonamide], in that order: 16 nM and 230 nM.
`CNS(=O)(=O)c1ccc(-c2cccc3nc(Nc4ccc(OC)cc4)oc23)cc1` [Example 139, 4-[2-(4-Methoxy-phenylamino)-benzooxazol-7-yl]-N-methyl-benzenesulfonamide]: the values for the IC50 on GST-JAK2(808-1132) and at GST-JAK2 were 120 nM and 400 nM, respectively.
For `COc1cc(Nc2nc3cccc(-c4ccc(CC(=O)N5CCOCC5)cc4)c3o2)cc(OC)c1OC` [Example 140, 1-Morpholin-4-yl-2-{4-[2-(3,4,5-trimethoxy-phenylamino)-benzooxazol-7-yl]-phenyl}-ethanone], in that order: 3.7 nM and 140 nM.
As to `COc1cc(Nc2nc3cccc(-c4ccc(C(=O)N5CCOCC5)cc4)c3o2)cc(OC)c1OC` [Example 141, Morpholin-4-yl-{4-[2-(3,4,5-trimethoxy-phenylamino)-benzooxazol-7-yl]-phenyl}-methanone], the figures for the IC50 at GST-JAK2(808-1132) and at GST-JAK2 were 8.1 nM and 220 nM, respectively.
Regarding `COc1cc(Nc2nc3cccc(-c4ccc(C(=O)N5CCN(C)CC5)cc4)c3o2)cc(OC)c1OC` [Example 142, (4-Methyl-piperazin-1-yl)-{4-[2-(3,4,5-trimethoxy-phenylamino)-benzooxazol-7-yl]-phenyl}-methanone], the IC50 on GST-JAK2(808-1132) was 58.5 nM; on GST-JAK2 it was 700 nM.
